Results on 19 compounds are retold here after US20130035326A1 (AMBIT BIOSCIENCES CORPORATION, priority 2009, published 2013).

One experiment addresses T1, FLT3 kinase (Homo sapiens, UniProt P36888).
T1 construct: made in house; host or cells: T7 phage display or HEK-293 cells
T1 sequence (P36888 27-993): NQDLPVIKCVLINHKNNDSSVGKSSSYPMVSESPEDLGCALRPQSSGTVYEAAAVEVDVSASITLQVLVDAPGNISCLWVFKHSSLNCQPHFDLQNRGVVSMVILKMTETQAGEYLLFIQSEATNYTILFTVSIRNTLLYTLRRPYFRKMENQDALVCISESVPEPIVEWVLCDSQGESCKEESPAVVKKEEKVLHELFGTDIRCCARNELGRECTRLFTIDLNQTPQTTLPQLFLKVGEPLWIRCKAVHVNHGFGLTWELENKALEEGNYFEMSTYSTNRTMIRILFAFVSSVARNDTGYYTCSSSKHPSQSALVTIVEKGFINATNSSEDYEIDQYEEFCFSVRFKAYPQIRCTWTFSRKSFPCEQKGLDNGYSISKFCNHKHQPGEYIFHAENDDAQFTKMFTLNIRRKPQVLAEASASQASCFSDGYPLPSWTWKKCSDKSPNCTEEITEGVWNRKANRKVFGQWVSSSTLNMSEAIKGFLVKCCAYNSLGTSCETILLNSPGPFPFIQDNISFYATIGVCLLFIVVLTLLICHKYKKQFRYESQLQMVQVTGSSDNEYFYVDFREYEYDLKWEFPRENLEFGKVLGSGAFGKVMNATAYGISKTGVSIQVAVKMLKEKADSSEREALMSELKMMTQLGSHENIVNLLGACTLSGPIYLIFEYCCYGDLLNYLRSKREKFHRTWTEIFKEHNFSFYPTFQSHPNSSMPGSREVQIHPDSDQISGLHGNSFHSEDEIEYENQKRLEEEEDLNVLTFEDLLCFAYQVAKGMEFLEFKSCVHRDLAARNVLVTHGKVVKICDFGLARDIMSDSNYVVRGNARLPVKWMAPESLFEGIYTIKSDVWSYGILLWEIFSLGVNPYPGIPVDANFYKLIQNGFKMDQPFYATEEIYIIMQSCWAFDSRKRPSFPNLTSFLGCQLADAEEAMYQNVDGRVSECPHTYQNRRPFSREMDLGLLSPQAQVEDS
The experiment in a line: Competition binding assay, FLT3 Kd. The procedure, abridged:
(§1)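 Equilibrium Kd measured by competition against immobilized ligand; kinase as T7 phage fusion or HEK-293 DNA-tagged protein; 1 h RT; qPCR read-out of eluate.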

The target of a further experiment is T2, KIT kinase (Homo sapiens, UniProt P10721).
T2 construct: made in house; host or cells: T7 phage display or HEK-293 cells
The experiment in a line: Competition binding assay, KIT Kd. The procedure, abridged:
as §1

The target in another experiment is T3, CSF-1R kinase (Homo sapiens, UniProt P07333).
T3 construct: made in house; host or cells: T7 phage display or HEK-293 cells
The experiment can be described thus: Competition binding assay, CSF-1R Kd. Put shortly: as §1

Another experiment relates to MV4-11 cells. The experiment can be described thus: MV4-11 cell proliferation assay (Alamar Blue). It counts as cell-based. The conditions noted are these: Homo sapiens, MV4-11, 72 h, 3 days incubation. Put shortly:
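Flt3-ITD MV4-11 cells were serum-starved overnight in Iscove's with 0.5% FBS, then given compound at 9 half-log concentrations (0.5% DMSO) for 3 days at 37° C. Alamar Blue reduction was read after 3 h by fluorescence (560/590 nm). IC50 is the mean of duplicates versus negative control.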
A general note: Resazurin is reduced to fluorescent resorufin, in cell work by metabolically active cells.

Experiment [1] concerns the target kinase panel containing either 359 or 386 distinct kinases. The experiment can be described thus: Selectivity score S10 from competition binding against a panel of kinases. The conditions noted are these: compounds at 10 μM; panel of 386 distinct kinases. Put shortly: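 Compounds were tested at 10 μM in competition binding against T7 phage-fused or HEK-293-expressed DNA-tagged kinases with immobilized affinity ligands, 1 h at room temperature. Bound kinase was quantified by qPCR as percent of DMSO control; S10 is the fraction of distinct kinases (mutants excluded) with POC below 10.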

T2 sequence (P10721 26-976): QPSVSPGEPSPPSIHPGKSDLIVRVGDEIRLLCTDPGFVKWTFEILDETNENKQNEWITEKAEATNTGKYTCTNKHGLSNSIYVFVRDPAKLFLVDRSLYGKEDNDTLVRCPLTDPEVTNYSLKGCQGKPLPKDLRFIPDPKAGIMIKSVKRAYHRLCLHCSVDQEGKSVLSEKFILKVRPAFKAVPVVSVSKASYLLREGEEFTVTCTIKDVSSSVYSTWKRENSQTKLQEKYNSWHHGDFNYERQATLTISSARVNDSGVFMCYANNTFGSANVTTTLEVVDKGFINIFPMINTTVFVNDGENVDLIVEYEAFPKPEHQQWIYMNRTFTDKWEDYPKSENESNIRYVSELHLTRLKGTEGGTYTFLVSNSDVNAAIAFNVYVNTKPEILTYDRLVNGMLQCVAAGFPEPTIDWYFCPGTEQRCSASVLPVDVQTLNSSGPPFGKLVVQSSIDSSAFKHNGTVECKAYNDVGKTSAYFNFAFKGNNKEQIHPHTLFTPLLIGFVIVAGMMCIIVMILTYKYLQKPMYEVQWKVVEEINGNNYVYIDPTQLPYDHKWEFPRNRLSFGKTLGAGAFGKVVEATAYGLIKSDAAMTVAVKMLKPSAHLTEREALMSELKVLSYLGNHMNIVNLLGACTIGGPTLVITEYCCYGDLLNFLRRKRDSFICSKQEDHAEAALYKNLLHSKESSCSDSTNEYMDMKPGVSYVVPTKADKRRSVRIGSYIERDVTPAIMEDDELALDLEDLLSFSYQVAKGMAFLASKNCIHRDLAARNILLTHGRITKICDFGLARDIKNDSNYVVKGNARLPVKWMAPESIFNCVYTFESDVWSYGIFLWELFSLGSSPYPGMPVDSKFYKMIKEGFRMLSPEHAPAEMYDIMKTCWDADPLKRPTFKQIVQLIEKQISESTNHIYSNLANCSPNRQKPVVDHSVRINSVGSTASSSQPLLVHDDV
T3 sequence (P07333 20-972): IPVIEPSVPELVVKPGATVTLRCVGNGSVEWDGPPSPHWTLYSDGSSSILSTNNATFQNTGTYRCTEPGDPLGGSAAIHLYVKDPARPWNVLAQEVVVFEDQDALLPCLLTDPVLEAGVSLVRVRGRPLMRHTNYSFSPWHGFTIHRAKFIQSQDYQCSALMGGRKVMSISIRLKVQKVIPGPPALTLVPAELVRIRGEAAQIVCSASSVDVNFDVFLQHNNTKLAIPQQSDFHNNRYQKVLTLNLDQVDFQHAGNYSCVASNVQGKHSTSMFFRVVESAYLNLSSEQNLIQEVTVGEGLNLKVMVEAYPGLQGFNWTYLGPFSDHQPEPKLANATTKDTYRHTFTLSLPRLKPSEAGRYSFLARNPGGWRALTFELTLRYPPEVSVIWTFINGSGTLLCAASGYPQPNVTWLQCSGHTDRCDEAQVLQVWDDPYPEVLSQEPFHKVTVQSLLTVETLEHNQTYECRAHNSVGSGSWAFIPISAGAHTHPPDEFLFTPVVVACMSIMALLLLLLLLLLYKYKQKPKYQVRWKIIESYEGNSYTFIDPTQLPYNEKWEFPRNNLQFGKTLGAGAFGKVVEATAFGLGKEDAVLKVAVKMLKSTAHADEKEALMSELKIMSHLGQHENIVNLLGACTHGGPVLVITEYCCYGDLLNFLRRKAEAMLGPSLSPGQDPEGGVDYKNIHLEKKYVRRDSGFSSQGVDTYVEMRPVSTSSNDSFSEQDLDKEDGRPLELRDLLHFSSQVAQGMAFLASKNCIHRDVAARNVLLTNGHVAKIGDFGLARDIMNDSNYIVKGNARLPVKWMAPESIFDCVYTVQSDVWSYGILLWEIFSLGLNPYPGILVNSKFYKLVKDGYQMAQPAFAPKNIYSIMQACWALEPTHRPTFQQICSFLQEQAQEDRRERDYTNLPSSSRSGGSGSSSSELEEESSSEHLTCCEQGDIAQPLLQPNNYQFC

In the case of `CC(C)(C)c1cc(NC(=O)Cc2ncc(-c3ccc(N)nc3)cc2F)no1.CS(=O)(=O)O` [Example 148, 6′-(2-(5-tert-butylisoxazol-3-ylamino)-2-oxoethyl)-5′-fluoro-3,3′-bipyridin-6-aminium methanesulfonate], the results for the Kd at FLT3 kinase, on KIT kinase and at CSF-1R kinase were at most 1 nM, at most 1 nM and at most 10 nM, respectively. In addition, in the experiment with MV4-11 cells, the IC50 (commonly the midpoint of a concentration-inhibition curve) was in the range of 1 to 10 nM. Besides, in experiment [1], the “Kinase specificty: S(10)-386 panel” value is given as “A (A≦0.1)”.
Take `Nc1ccc(-c2ccc(CC(=O)Nc3cc(C4(C(F)F)CC4)on3)cc2)cn1` [Example 149, 2-(4-(6-aminopyridin-3-yl)phenyl)-N-(5-(1-(difluoromethyl)cyclopropyl)isoxazol-3-yl)acetamide]: the Kd (in general, the equilibrium constant for the complex coming apart) at FLT3 kinase is at most 1 nM; on KIT kinase it was at most 1 nM; on CSF-1R kinase, at most 10 nM. For the same compound, the IC50 in the experiment with MV4-11 cells lay within 1 to 10 nM. Further, in experiment [1], the “Kinase specificty: S(10)-386 panel” value is “B (0.1<B≦0.2 nM)”.
Take `CC(C)(C)c1cc(NC(=O)Cc2ccc(-c3cnc(N)cc3Cl)cc2)no1.CS(=O)(=O)O` [Example 150, 5-(4-(2-(5-tert-butylisoxazol-3-ylamino)-2-oxoethyl)phenyl)-4-chloropyridin-2-aminium methanesulfonate]: the Kd at FLT3 kinase is at most 1 nM; on KIT kinase it was 1 to 10 nM; at CSF-1R kinase, at most 10 nM. Besides, the IC50 in the experiment with MV4-11 cells lay within 1 to 10 nM. Besides, the “Kinase specificty: S(10)-386 panel” value in experiment [1] is “A (A≦0.1)”.
As to `CC(C)(C)c1cc(NC(=O)Cc2ccc(-c3cnc(N)cc3F)cc2)no1.CS(=O)(=O)O` [Example 151, 5-(4-(2-(5-tert-butylisoxazol-3-ylamino)-2-oxoethyl)phenyl)-4-fluoropyridin-2-aminium methanesulfonate], the dissociation constant Kd on FLT3 kinase was at most 1 nM; at KIT kinase, 10 to 100 nM; at CSF-1R kinase, at most 10 nM. The compound also had an IC50 with MV4-11 cells of 1 to 10 nM. Moreover, the “Kinase specificty: S(10)-386 panel” value in experiment [1] is recorded as “B (0.1<B≦0.2 nM)”.
The matching figures for `CC(C)(C)c1cc(NC(=O)Cc2ccc(-c3cc(F)c(N)nc3F)cc2)no1.CS(=O)(=O)O` [Example 152, 5-(4-(2-(5-tert-butylisoxazol-3-ylamino)-2-oxoethyl)phenyl)-3,6-difluoropyridin-2-aminium methanesulfonate]: at most 1 nM, 1 to 10 nM, at most 10 nM, at most 1 nM and “A (A≦0.1)”.
On to `CC(F)(F)C1(c2cc(NC(=O)Cc3ccc(-c4ccc(N)nc4)cc3)no2)CC1` [Example 153], for which the Kd was at most 1 nM at FLT3 kinase, 1 to 10 nM on KIT kinase and at most 10 nM at CSF-1R kinase. Moreover, in the experiment on MV4-11 cells, the IC50 is at most 1 nM. The “Kinase specificty: S(10)-386 panel” value in experiment [1] is given as “B (0.1<B≦0.2 nM)”.
`CC(C)(C)c1cc(NC(=O)Cc2ccc(-c3ccc(N)nc3)nc2)no1` [Example 155]: the Kd on FLT3 kinase is at most 1 nM; at KIT kinase, at most 1 nM; at CSF-1R kinase, 100 to 500 nM. The compound also came in with an IC50 in the experiment on MV4-11 cells of 10 to 100 nM. For the same compound, the “Kinase specificty: S(10)-386 panel” value in experiment [1] was “A (A≦0.1)”.
For the compound `CC(C)(C)c1cc(NC(=O)Cc2ccc(-c3cnc(N)cc3C(F)(F)F)cc2)no1` [Example 156], the Kd on FLT3 kinase was at most 1 nM; on KIT kinase it was 1 to 10 nM; on CSF-1R kinase, 10 to 100 nM. In the experiment on MV4-11 cells, this compound had an IC50 of 10 to 100 nM. For the same compound, the “Kinase specificty: S(10)-386 panel” value in experiment [1] was “A (A≦0.1)”.
As to `COc1cc(N)ncc1-c1ccc(CC(=O)Nc2cc(C(C)(C)C)on2)cc1` [Example 157], the Kd was at most 1 nM on FLT3 kinase, 1 to 10 nM on KIT kinase and 10 to 100 nM on CSF-1R kinase. This compound also came in with an IC50 with MV4-11 cells of 1 to 10 nM. Besides, the “Kinase specificty: S(10)-386 panel” value in experiment [1] is on record as “A (A≦0.1)”.
As to `Cc1cc(-c2ccc(CC(=O)Nc3cc(C4(C)CC4)on3)cc2)cnc1N` [Example 158], the results for the Kd on FLT3 kinase, at KIT kinase and at CSF-1R kinase were at most 1 nM, at most 1 nM and at most 10 nM, respectively. The compound also showed an IC50 in the experiment with MV4-11 cells of 1 to 10 nM. For the same compound, the “Kinase specificty: S(10)-386 panel” value in experiment [1] was “A (A≦0.1)”.
For `CC(F)(F)C1(c2cc(NC(=O)Cc3ccc(-c4ccc(N)nc4F)cc3)no2)CC1` [Example 159], the Kd is 1 to 10 nM at FLT3 kinase, 1 to 10 nM on KIT kinase and at most 10 nM on CSF-1R kinase. For the same compound, the IC50 with MV4-11 cells is at most 1 nM. The “Kinase specificty: S(10)-386 panel” value in experiment [1] is “A (A≦0.1)”.
On to `CC1(c2cc(NC(=O)Cc3ccc(-c4cnc(N)c(Cl)c4)cc3)no2)CC1` [Example 160], for which the Kd was at most 1 nM at FLT3 kinase, at most 1 nM at KIT kinase and at most 10 nM on CSF-1R kinase. Besides, the IC50 in the experiment with MV4-11 cells was at most 1 nM. Besides, in experiment [1], the “Kinase specificty: S(10)-386 panel” value is reported as “B (0.1<B≦0.2 nM)”.
In the case of `CC1(c2cc(NC(=O)Cc3ccc(-c4cnc(N)c(C(F)(F)F)c4)cc3)no2)CC1` [Example 161], the values for the Kd on FLT3 kinase, at KIT kinase and on CSF-1R kinase were at most 1 nM, 1 to 10 nM and at most 10 nM, respectively. This compound registered an IC50 in the experiment with MV4-11 cells of at most 1 nM. Moreover, the “Kinase specificty: S(10)-386 panel” value in experiment [1] is recorded as “B (0.1<B≦0.2 nM)”.
For the compound `Cc1nc(N)ccc1-c1ccc(CC(=O)Nc2cc(C3(C)CC3)on2)cc1` [Example 162], the equilibrium dissociation constant (Kd) at FLT3 kinase was at most 1 nM; at KIT kinase it was at most 1 nM; at CSF-1R kinase, at most 10 nM. The IC50 with MV4-11 cells was in the range of 10 to 100 nM. Besides, the “Kinase specificty: S(10)-386 panel” value in experiment [1] is listed as “A (A≦0.1)”.
On to `CC(C)(C)c1cc(NC(=O)Cc2ccc(-c3cnc(N)c(C(F)F)c3)cc2)no1` [Example 163], for which the Kd is at most 1 nM at FLT3 kinase, 1 to 10 nM on KIT kinase and at most 10 nM at CSF-1R kinase. Besides, in the experiment on MV4-11 cells, the IC50 is at most 1 nM. Also, the “Kinase specificty: S(10)-386 panel” value in experiment [1] was “B (0.1<B≦0.2 nM)”.
In the case of `COc1cc(-c2ccc(CC(=O)Nc3cc(C4(C)CC4)on3)cc2)cnc1N` [Example 164], the Kd was at most 1 nM at FLT3 kinase, at most 1 nM on KIT kinase and at most 10 nM at CSF-1R kinase. Besides, in the experiment with MV4-11 cells, the IC50 was 1 to 10 nM. In addition, the “Kinase specificty: S(10)-386 panel” value in experiment [1] is “B (0.1<B≦0.2 nM)”.
As for `Cc1nc(N)cnc1-c1ccc(CC(=O)Nc2cc(C(C)(C)C)on2)cc1` [Example 165], the Kd on FLT3 kinase was at most 1 nM; at KIT kinase, 1 to 10 nM; on CSF-1R kinase it was 10 to 100 nM. Besides, the 50% inhibitory concentration (IC50) in the experiment on MV4-11 cells lay in the range of 10 to 100 nM. Further, the “Kinase specificty: S(10)-386 panel” value in experiment [1] was “A (A≦0.1)”.
On to `CC(C)(C)c1cc(NC(=O)Cc2ccc(-c3ccc(N)nc3C#N)cc2)no1` [Example 166], for which the values for the Kd at FLT3 kinase, on KIT kinase and at CSF-1R kinase were at most 1 nM, 1 to 10 nM and 10 to 100 nM, respectively. In the experiment on MV4-11 cells, the IC50 is 10 to 100 nM. In addition, the “Kinase specificty: S(10)-386 panel” value in experiment [1] is “A (A≦0.1)”.
Regarding `Nc1ccc(-c2ccc(CC(=O)Nc3cc(C4(C(F)(F)F)CCC4)on3)cc2)c(F)n1` [Example 167], the Kd is at most 1 nM on FLT3 kinase, 1 to 10 nM on KIT kinase and at most 10 nM on CSF-1R kinase. Further, the IC50 in the experiment on MV4-11 cells is at most 1 nM. Besides, the “Kinase specificty: S(10)-386 panel” value in experiment [1] is reported as “A (A≦0.1)”.
